Reference: article PMC9372421 (Clinical and Translational Science, 2022)
In brackets after ≈: the same amount, converted by molar mass. Several values for one entry are separate records, joined by “and”; a condition that tells them apart may be missing. Identical values can stand only once. Like-named read-outs stand apart in the source and are kept apart here.

Tests used:
[1] = molecular target: T1, human NaV1.5 sodium channel (Homo sapiens, UniProt Q14524)
[2] = molecular target: T1, human NaV1.5 sodium channel; type: cell-based
[3] = molecular target: T1, human NaV1.5 sodium channel; remark: listed apart in the source
[4] = healthy subjects; cited from earlier work
[5] = human, in vivo
canine purkinje fibers = conditions: 30 μM; historical nonclinical assessment, data not reported; cited from earlier work
[6] = molecular target: T1, human NaV1.5 sodium channel; remark: listed apart in the source
[7] = cited from earlier work
[8] = molecular target: T1, human NaV1.5 sodium channel; test: cell-based; conditions: IC50 block of peak NaV1.5 current, HEK293, mean ± SEM
[9] = human, in vivo; remark: listed apart in the source
[10] = molecular target: T1, human NaV1.5 sodium channel; test: cell-based; conditions: IC50 block of late NaV1.5 current, mean ± SEM
[11] = lamotrigine containing regimens vs. no ASMs, cited from earlier work
hERG potassium channel = conditions: cited from earlier work
[12] = lamotrigine 15 μg/ml; cited from earlier work
[13] = each drug at or near its IC50, lamotrigine 280 μM, mean ± SEM
[14] = each drug at or near its IC50, V hold = −120 mV
[15] = each drug at or near its IC50, lamotrigine 280 µM, V hold = −120 mV

T1 sequence (Q14524 whole entry): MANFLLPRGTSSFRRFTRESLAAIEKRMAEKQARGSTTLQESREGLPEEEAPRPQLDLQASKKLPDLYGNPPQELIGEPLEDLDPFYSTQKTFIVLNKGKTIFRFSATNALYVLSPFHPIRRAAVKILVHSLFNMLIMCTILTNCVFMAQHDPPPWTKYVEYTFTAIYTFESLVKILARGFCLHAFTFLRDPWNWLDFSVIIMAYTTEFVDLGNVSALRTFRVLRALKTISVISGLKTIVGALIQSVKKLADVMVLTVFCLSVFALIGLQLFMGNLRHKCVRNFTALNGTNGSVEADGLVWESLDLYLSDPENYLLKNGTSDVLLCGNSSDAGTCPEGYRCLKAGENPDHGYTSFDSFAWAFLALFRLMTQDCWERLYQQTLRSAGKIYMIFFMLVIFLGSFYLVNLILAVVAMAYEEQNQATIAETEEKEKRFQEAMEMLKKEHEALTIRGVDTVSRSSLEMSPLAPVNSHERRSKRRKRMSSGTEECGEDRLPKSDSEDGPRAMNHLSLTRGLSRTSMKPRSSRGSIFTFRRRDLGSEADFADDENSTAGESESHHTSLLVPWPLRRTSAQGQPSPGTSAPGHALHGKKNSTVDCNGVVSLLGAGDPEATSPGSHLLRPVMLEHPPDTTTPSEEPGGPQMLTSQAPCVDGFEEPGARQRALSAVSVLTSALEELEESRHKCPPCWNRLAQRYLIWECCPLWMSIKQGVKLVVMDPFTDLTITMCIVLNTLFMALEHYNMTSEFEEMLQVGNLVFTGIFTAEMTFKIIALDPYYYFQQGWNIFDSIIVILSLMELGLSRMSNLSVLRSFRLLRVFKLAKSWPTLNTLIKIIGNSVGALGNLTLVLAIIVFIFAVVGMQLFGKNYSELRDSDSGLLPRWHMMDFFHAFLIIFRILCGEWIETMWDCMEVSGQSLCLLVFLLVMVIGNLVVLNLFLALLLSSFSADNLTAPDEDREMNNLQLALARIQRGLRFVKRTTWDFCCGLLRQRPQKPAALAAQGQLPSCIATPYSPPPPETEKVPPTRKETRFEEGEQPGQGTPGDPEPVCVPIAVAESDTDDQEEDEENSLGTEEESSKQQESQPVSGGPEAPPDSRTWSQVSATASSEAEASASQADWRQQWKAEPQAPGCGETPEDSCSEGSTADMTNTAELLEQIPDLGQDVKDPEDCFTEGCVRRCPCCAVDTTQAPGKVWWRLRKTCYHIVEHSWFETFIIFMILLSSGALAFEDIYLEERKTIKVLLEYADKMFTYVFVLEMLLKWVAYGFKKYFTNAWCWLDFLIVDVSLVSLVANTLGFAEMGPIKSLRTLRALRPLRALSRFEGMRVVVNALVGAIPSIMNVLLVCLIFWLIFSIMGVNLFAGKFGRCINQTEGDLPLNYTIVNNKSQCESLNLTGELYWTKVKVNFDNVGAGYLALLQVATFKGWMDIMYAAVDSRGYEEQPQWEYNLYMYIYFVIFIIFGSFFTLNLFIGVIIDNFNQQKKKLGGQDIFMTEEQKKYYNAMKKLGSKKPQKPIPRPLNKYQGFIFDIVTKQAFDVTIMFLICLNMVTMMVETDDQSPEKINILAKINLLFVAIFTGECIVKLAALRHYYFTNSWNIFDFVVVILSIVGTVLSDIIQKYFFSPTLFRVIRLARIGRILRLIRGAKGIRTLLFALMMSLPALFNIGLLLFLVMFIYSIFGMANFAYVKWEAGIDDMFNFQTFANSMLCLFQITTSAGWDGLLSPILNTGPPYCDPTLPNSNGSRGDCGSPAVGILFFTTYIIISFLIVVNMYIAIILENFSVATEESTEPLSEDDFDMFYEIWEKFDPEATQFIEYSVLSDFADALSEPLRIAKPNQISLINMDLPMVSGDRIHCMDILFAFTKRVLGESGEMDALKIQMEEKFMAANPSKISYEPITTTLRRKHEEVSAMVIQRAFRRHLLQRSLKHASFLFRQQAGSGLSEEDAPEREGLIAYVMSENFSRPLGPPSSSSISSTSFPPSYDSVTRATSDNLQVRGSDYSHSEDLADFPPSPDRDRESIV

With `Cc1cccc(C)c1OCC(C)N` (centres unmarked) [mexiletine] the “Tonic block of NaV1.5, percent inhibition” value ([1]; human) was 9.2 ± 1.5%, the “τon Percent Fast” value [2] was 92.9% and > 92% and the “τoff Percent Fast” value [3] was 83.2%. The “τoff Tau fast” value [3] was 0.8 ± 0.03 s.
With `C=C[C@H]1C[N@@]2CC[C@H]1C[C@@H]2[C@@H](O)c1ccnc2ccc(OC)cc12` [quinidine] the “Tonic block of NaV1.5, percent inhibition” value [1, 13] was 6.7 ± 1.2%, the “τon contribution by the slow component of the exponential” value [2, 14] was 26.1% and the “τoff Tau slow” value ([3]; each drug at or near its IC50, −120 mV) was 37.7 ± 5.9 s.
With `O=C(NCC1CCCCN1)c1cc(OCC(F)(F)F)ccc1OCC(F)(F)F` (centres unmarked) [flecainide] the “Tonic block of NaV1.5, percent inhibition” value [1, 13] was 1.6 ± 1.2%, the “τon contribution by the slow component of the exponential” value [2, 14] was 45.1% and the “τon Percent Fast” value [2, 15] was 54.9%.
For `Nc1nnc(-c2cccc(Cl)c2Cl)c(N)n1` [lamotrigine, Lamotrigine], the “QTc interval, QRS duration, or blood pressure” value [4] is given as “no increase”, the QTcF [4] is given as “small reductions” and the “heart rate and mean PR interval” value [4] is given as “small increases”. For the same compound, the “Tonic block of NaV1.5, percent inhibition” value [1, 13] was 26.8 ± 1.4%, the “Tonic block of NaV1.5, percent inhibition” value ([1]; lamotrigine 25 μM, mean ± SEM) was 2.6 ± 2.1% and the free concentration [5] was 6600 ng/mL. The peak unbound concentration [5] was 3.15 to 24.5 µM, the “inhibition of action potential upstroke (dV/dt)” value (canine purkinje fibers) was less than 10% and the “fold difference in potency at a depolarized potential” value [6] was 10 fold. The “τon fast component, fold of mexiletine” value [2] was no more than 1.6 fold, the “τon Percent Fast” value [2, 15] was greater than 92% and the “% block at 200th pulse” value ([2]; lamotrigine 25 µM, V hold = −120 mV) was 25.5 ± 1.5% and 26%. For the same compound, the “τon fast component, fold faster than flecainide” value ([2]; lamotrigine versus flecainide) was 8.4 fold, the “τon fast component, fold faster than quinidine” value ([2]; lamotrigine versus quinidine) was 4.7 fold and the “concentrations expected in over 95% of patients” value [7] was “below 15 μg/ml”. For the same compound, the “highest values for peak concentrations reported in patients” value [7] was ~ 20 μg/ml, the IC50 ([8]; V hold = −95 mV, 0.1 Hz) was 28.8 µM and 28.9 µM and the IC50 ([8]; V hold = −120 mV) was 280 µM. For the same compound, the “safety reports relating to the circulatory system” value [9] was 1483 reports, the “safety reports relating to the circulatory system, share of all reports” value [9] was 0.021% and the “recovery from block, rate fold faster than quinidine” value [3] was 1.4 fold. For the same compound, the “off-rate kinetics fold faster than flecainide” value ([3]; high concentration of lamotrigine) was greater than 86 fold, the “τoff slow component, fold faster than quinidine's slow time constant” value ([3]; lamotrigine 25 μM) was 2.4 fold and the “τoff Percent Fast” value ([3]; lamotrigine 25 µM, −120 mV) was 58.0%. The “τoff Tau fast” value ([3]; lamotrigine 25 µM, −120 mV) was 0.8 ± 0.1 s, the “τoff Tau slow” value ([3]; lamotrigine 25 µM, −120 mV) was 15.6 ± 5.0 s and the IC50 ([10]; ramp epoch) was 12.1 µM. For the same compound, the IC50 ([10]; −15 mV epoch) was 17.2 µM, the “expected increase in PR interval (absolute values)” value (at 15 μg/ml, healthy subjects, outlier included) was 18.15 ms and the “decrease in QRS interval (absolute values)” value (at 15 μg/ml, outlier included) was 5.94 ms. The “expected PR prolongation relative to baseline” value (at ~20 μg/ml, highest peak concentrations reported in patients) was 8.24 ms, the “increase in PR interval as change from baseline” value (healthy subjects, outlier included) was “up to 6.18 ms” and the “mean PR interval” value (human, in vivo) was 169 ms. The “slope in PR change from baseline per μg/ml of lamotrigine” value (outlier included) was 0.412 ms/µg/mL, the “subjects with QRS interval >120 ms while on lamotrigine” value (outlier included) was “None” and the “SUDEP odds ratio (OR)” value ([11]; 95% CI: 0.31–0.97) was 0.55. For the same compound, the “reduction in SUDEP risk” value [11] was 45%, the IC50 (hERG potassium channel) was 229 µM and the “potency (IC50) to block the hERG potassium channel” value (hERG potassium channel) was 58.6 µg/mL (≈ 229 µM). For the same compound, the “percent of the maximum effect of flecainide” value [12] was ~ 29%.
